Experimental data reported in patent publication US9808954B2, “Composition of a timber formulation comprising Cu salts and organic cyclic ingredients for the preservation of timber for decks” (Rutgers Organics GmbH, priority 2014, dated 2017).

Legend:
coniophora puteana = test: EN113 test after EN84 washing, pine timber, coniophora puteana; format: cell-based
Method: (§1) Timber pieces were positioned in a treating vessel. Over a period of 30 minutes a pressure of 0.1 bar was applied. The treating solution containing a Product was sucked into the vessel. Then the pressure in the vessel was increased to 10 bar at 25° C. for 90 minutes. Afterwards the pressure was set to ambient pressure and the remainder of the treating solution was removed. The impregnated timber pieces were dried at ambient temperature.
(§2) In both tables 13 and 14 the standard applied is EN113. Prior to EN113, the timber was washed according to EN84. The type of timber used was pine.
(§3) Tables 13 and 14 show the average retention of the active ingredient (AI) in Product C when it is exposed to both “poria placenta” (table 13) and “coniophora puteana” (table 14). Comparisons are also made with retention values of DPAB and the azol (triadimefon) in the timber. Average AI retention values are required in order to pass the EN113 Standard.
(§4) In both tables 15 and 16 the standard applied is EN113. Prior to EN113, the timber was washed according to EN84. The type of timber used was pine.
(§5) As for product C, tables 15 and 16 show the average retention of the active ingredient (AI) in Product D when it is exposed to both “poria placenta” (table 15) and “coniophora puteana” (table 16). Comparisons are also made with retention values of DPAB and the azol (cyproconazol) in the timber. […]

poria placenta = test: EN113 test after EN84 washing, pine timber, poria placenta; format: cell-based
Method: as §1, §2, §3, §4, §5

di-decyl-poly-oxethyl-ammoninum borate [DPAB TGAI]
Average DPAB retention in timber (coniophora puteana; coniophora puteana (Table 14)): 7.40 kg/m^3
Average DPAB retention in timber (coniophora puteana; coniophora puteana (Table 16)): 7.40 kg/m^3
Average DPAB retention in timber (poria placenta; poria placenta (Table 13)): 4.50 kg/m^3
Average DPAB retention in timber (poria placenta; poria placenta (Table 15)): 4.50 kg/m^3
